From PubChem BioAssay AID192 (DTP/NCI, 2004)
Where “and” joins values, the source holds several entries; their conditions need not be identical. Equal entries are not always repeated. Inconclusive results and toxic doses are left out.

System: BDF1 mice, B16 melanoma ip, median survival T/C
Experiment: NCI In Vivo Anticancer Drug Screen. Data for tumor model B16 Melanoma (intraperitoneal) in B6D2F1 (BDF1) mice
Conditions: endpoint: median survival time, higher = longer survival
Method in brief: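 Each result divides a survival or tumor-size measurement in the compound-treated group by the same measurement in the vehicle group.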

[1] = dose: 1.56 mg/kg/injection, schedule: Q01DX009 (ip), vehicle: saline
[2] = dose: 3.12 mg/kg/injection, schedule: Q01DX009 (ip), vehicle: saline
[3] = dose: 12.5 mg/kg/injection, schedule: Q01DX009 (ip), vehicle: saline
[4] = dose: 50.0 mg/kg/injection, schedule: Q01DX009 (ip), vehicle: saline with Tween-80
[5] = dose: 100.0 mg/kg/injection, schedule: Q01DX009 (ip), vehicle: saline with Tween-80
[6] = dose: 200.0 mg/kg/injection, schedule: Q01DX009 (ip), vehicle: saline with Tween-80
[7] = dose: 25.0 mg/kg/injection, schedule: Q01DX009 (ip), vehicle: saline with Tween-80
[8] = dose: 50.0 mg/kg/injection, schedule: Q01DX009 (ip), vehicle: Klucel (hydroxypropylcellulose) (HPC)
[9] = dose: 100.0 mg/kg/injection, schedule: Q01DX009 (ip), vehicle: Klucel (hydroxypropylcellulose) (HPC)
[10] = dose: 50.0 mg/kg/injection, schedule: Q01DX009 (ip), vehicle: saline
[11] = dose: 400.0 mg/kg/injection, schedule: Q01DX009 (ip), vehicle: saline
[12] = dose: 100.0 mg/kg/injection, schedule: Q01DX009 (ip), vehicle: saline
[13] = dose: 5.0 mg/kg/injection, schedule: Q01DX009 (ip), vehicle: saline
[14] = dose: 10.0 mg/kg/injection, schedule: Q01DX009 (ip), vehicle: saline
[15] = dose: 20.0 mg/kg/injection, schedule: Q01DX009 (ip), vehicle: saline
[16] = dose: 200.0 mg/kg/injection, schedule: Q01DX009 (ip), vehicle: Klucel (hydroxypropylcellulose) (HPC)

Which T/C [1] does the source give for `FC(F)(F)c1ccc2c(c1)N(CCCNCCN1CCOCC1)c1ccccc1S2` here?
The T/C was 105 % of control.

And the T/C (dose: 1.56 mg/kg/injection, schedule: Q04DX003 (ip), vehicle: saline)?
Its T/C is 93 % of control and 95 % of control.

What about the T/C [2] of the same compound?
Its T/C is 88 % of control.

And the T/C (dose: 3.12 mg/kg/injection, schedule: Q04DX003 (ip), vehicle: saline)?
The T/C was 102 % of control.

And the T/C (dose: 6.25 mg/kg/injection, schedule: Q04DX003 (ip), vehicle: saline)?
The T/C was 100 % of control and 105 % of control.

And the T/C [3]?
The T/C was 100 % of control.

And the T/C (dose: 12.5 mg/kg/injection, schedule: Q04DX003 (ip), vehicle: saline)?
The T/C was 93 % of control and 107 % of control.

What about the T/C (dose: 25.0 mg/kg/injection, schedule: Q04DX003 (ip), vehicle: saline) of the same compound?
The T/C was 99 % of control and 100 % of control.

What about the T/C (dose: 50.0 mg/kg/injection, schedule: Q04DX003 (ip), vehicle: saline) of the same compound?
The T/C was 90 % of control.

For `CSc1ncc(C#N)c(N)n1`, which T/C [4] is on record?
The T/C was 107 % of control.

And the T/C [5]?
The T/C was 99 % of control.

What about the T/C [6] of the same compound?
The T/C was 97 % of control.

How did the T/C [7] turn out when `CS(=O)(=O)OCCN(CCOS(C)(=O)=O)c1ccc(/C=N/Nc2ncnc3nc[nH]c23)cc1` was run?
Its T/C is 115 % of control.

And the T/C [4]?
The T/C was 110 % of control.

What about the T/C [5] of the same compound?
Its T/C is 105 % of control and 113 % of control.

What about the T/C (dose: 400.0 mg/kg/injection, schedule: Q04DX003 (ip), vehicle: saline with Tween-80) of the same compound?
The T/C was 91 % of control and 121 % of control.

Which T/C [7] does the source give for `O=C(CC(=O)C(F)(F)C(F)(F)C(F)(F)F)c1csc2ccccc12` here?
The T/C was 97 % of control.

What about the T/C [4] of the same compound?
The T/C was 100 % of control.

And the T/C [5]?
Its T/C is 92 % of control.

How did the T/C [8] turn out when `CCC1CCCCC1(O)CC` (stereo not drawn) was run?
The T/C was 98 % of control.

What about the T/C [9] of the same compound?
Its T/C is 99 % of control.

How did the T/C (dose: 12.5 mg/kg/injection, schedule: Q04DX003 (ip), vehicle: Klucel (hydroxypropylcellulose) (HPC)) turn out when `CC[N+](CC)(CC)CC.N#C/C([SH2+])=C(/[SH2+])C#N.N#C/C([SH2+])=C(/[SH2+])C#N.[Cu+2]` was run?
Its T/C is 92 % of control.

And the T/C (dose: 25.0 mg/kg/injection, schedule: Q04DX003 (ip), vehicle: Klucel (hydroxypropylcellulose) (HPC))?
The T/C was 89 % of control.

How did the T/C [1] turn out when `CNNC(=O)NC` was run?
Its T/C is 87 % of control.

And the T/C [2]?
Its T/C is 95 % of control.

And the T/C [3]?
Its T/C is 100 % of control.

What does the source list for `Nc1c(Cl)cc(C(=O)NC2CC2)cc1Cl`?
T/C (dose: 6.25 mg/kg/injection, schedule: Q01DX009 (ip), vehicle: saline): 92 % of control; T/C [3]: 102 % of control; T/C (dose: 25.0 mg/kg/injection, schedule: Q01DX009 (ip), vehicle: saline): 113 % of control; T/C [10]: 97 % of control

For `NC(=O)CC(N)C(=O)O.[Cl-].[Cl-].[Cl-].[Cl-].[Pt+2]` (stereo not drawn), which T/C [1] is on record?
Its T/C is 114 % of control.

What about the T/C (dose: 3.13 mg/kg/injection, schedule: Q01DX009 (ip), vehicle: saline) of the same compound?
Its T/C is 122 % of control.

`ClC1CCC[N-]C1.ClC1CCC[N-]C1.[Cl][Pt+2]([Cl])([Cl])[Cl]` (stereo not drawn) was tested. Which T/C (dose: 0.78 mg/kg/injection, schedule: Q01DX009 (ip), vehicle: saline with Tween-80) did it give?
The T/C was 105 % of control.

And the T/C (dose: 1.56 mg/kg/injection, schedule: Q01DX009 (ip), vehicle: saline with Tween-80)?
The T/C was 100 % of control.

And the T/C (dose: 3.13 mg/kg/injection, schedule: Q01DX009 (ip), vehicle: saline with Tween-80)?
The T/C was 97 % of control.

And the T/C (dose: 6.25 mg/kg/injection, schedule: Q01DX009 (ip), vehicle: saline with Tween-80)?
Its T/C is 106 % of control.

Which T/C [11] does the source give for `Cc1ccc(N(CCCl)CCCl)cc1NC(=O)c1ccccc1` here?
Its T/C is 161 % of control.

What about the T/C (dose: 800.0 mg/kg/injection, schedule: Q01DX009 (ip), vehicle: saline) of the same compound?
The T/C was 188 % of control.

For `FC(F)(F)c1ccc2c(c1)N(CCCN1CCN(CCN3CCOCC3)CC1)c1ccccc1S2`, which T/C (dose: 0.37 mg/kg/injection, schedule: Q01DX009 (ip), vehicle: saline) is on record?
The T/C was 97 % of control.

What about the T/C (dose: 0.75 mg/kg/injection, schedule: Q01DX009 (ip), vehicle: saline) of the same compound?
Its T/C is 87 % of control.

And the T/C (dose: 1.5 mg/kg/injection, schedule: Q01DX009 (ip), vehicle: saline)?
Its T/C is 115 % of control.

And the T/C (dose: 3.0 mg/kg/injection, schedule: Q01DX009 (ip), vehicle: saline)?
Its T/C is 112 % of control.

What does the source list for `CCCN(CCC)C(=O)c1cccnc1`?
T/C [12]: 102 % of control; T/C (dose: 200.0 mg/kg/injection, schedule: Q01DX009 (ip), vehicle: saline): 106 % of control; T/C [11]: 113 % of control

How did the T/C (dose: 100.0 mg/kg/injection, schedule: Q04DX003 (ip), vehicle: saline) turn out when `C[n+]1cccc(O)c1` was run?
The T/C was 95 % of control.

What about the T/C (dose: 200.0 mg/kg/injection, schedule: Q04DX003 (ip), vehicle: saline) of the same compound?
Its T/C is 97 % of control.

And the T/C (dose: 400.0 mg/kg/injection, schedule: Q04DX003 (ip), vehicle: saline)?
Its T/C is 102 % of control.

Which T/C [13] does the source give for `c1ccc(OCCC[P+](c2ccccc2)(c2ccccc2)c2ccccc2)cc1` here?
The T/C was 107 % of control.

What about the T/C [14] of the same compound?
Its T/C is 105 % of control.

What about the T/C [15] of the same compound?
The T/C was 95 % of control.

And the T/C (dose: 40.0 mg/kg/injection, schedule: Q01DX009 (ip), vehicle: saline)?
Its T/C is 97 % of control.

Which T/C [4] does the source give for `Oc1ccc(I)c2cccnc12` here?
The T/C was 97 % of control.

And the T/C [5]?
The T/C was 100 % of control.

What about the T/C [6] of the same compound?
Its T/C is 97 % of control.

For `COC(=O)CC(=O)CBr`, which T/C [13] is on record?
Its T/C is 100 % of control.

What about the T/C [14] of the same compound?
Its T/C is 93 % of control.

And the T/C [15]?
The T/C was 94 % of control.

Which results are given for `C/C=C\C#N`?
T/C [10]: 107 % of control; T/C [12]: 107 % of control

`C[n+]1cccc(NC(=O)c2ccc(NC(=O)C34CCC(C(=O)Nc5ccc(C(=O)Nc6ccc[n+](C)c6)cc5)(CC3)CC4)cc2)c1` was tested. Which T/C (dose: 10.0 mg/kg/injection, schedule: Q01DX009 (ip), vehicle: saline with Tween-80) did it give?
Its T/C is 154 % of control.

`CC(C)=C(C=O)CCC(C)C` was tested. Which T/C (dose: 25.0 mg/kg/injection, schedule: Q04DX003 (ip), vehicle: saline with Tween-80) did it give?
The T/C was 100 % of control.

What about the T/C (dose: 50.0 mg/kg/injection, schedule: Q04DX003 (ip), vehicle: saline with Tween-80) of the same compound?
The T/C was 95 % of control.

And the T/C (dose: 100.0 mg/kg/injection, schedule: Q04DX003 (ip), vehicle: saline with Tween-80)?
The T/C was 97 % of control and 100 % of control.

For `Cn1c2c(sc1=O)CCC2`, which T/C [8] is on record?
Its T/C is 113 % of control.

And the T/C [9]?
Its T/C is 100 % of control.

What about the T/C [16] of the same compound?
The T/C was 97 % of control.

What does the source list for `Nc1cc(Cl)cc(Cl)c1C(=O)O`?
T/C (dose: 50.0 mg/kg/injection, schedule: Q04DX003 (ip), vehicle: other): 102 % of control; T/C (dose: 100.0 mg/kg/injection, schedule: Q04DX003 (ip), vehicle: other): 100 % of control; T/C (dose: 200.0 mg/kg/injection, schedule: Q04DX003 (ip), vehicle: other): 102 % of control

Which results are given for `COc1cccc(CNc2cccc([N+](=O)[O-])c2)c1OC`?
T/C [9]: 100 % of control; T/C [16]: 110 % of control; T/C (dose: 400.0 mg/kg/injection, schedule: Q01DX009 (ip), vehicle: Klucel (hydroxypropylcellulose) (HPC)): 105 % of control
